# Counter-ions that a name gives are not always drawn. Like-named read-outs stand apart in the source and are kept apart here.
# Columns and labels:
# [1] = Dynamic vapor sorption (DVS) / moisture sorption analysis; assay type: physicochemical; conditions: for hygroscopicity / moisture uptake at 60% RH / moisture uptake at 90% RH: DVS; for moisture uptake at 60% RH / moisture uptake at 90% RH: about 25° C.
# Protocol: Compounds and polymorphs provided herein can be characterized by moisture sorption analysis. This analysis was performed using a Hiden IGAsorp Moisture Sorption instrument. Moisture sorption experiments were carried out at about 25° C. by performing an adsorption scan from about 40% to about 90% RH in steps of about 10% RH and a desorption scan from about […] to about 0% RH in steps of about −10% RH. A second adsorption scan from about 10% to about 40% RH was performed to determine the moisture uptake from a drying state to the starting humidity. Samples were allowed to equilibrate for about four hours at each point or until an asymptotic weight was reached. After the isothermal sorption scan, samples were dried for about one hour at elevated temperature (about 60° C.) to obtain the dry weight. XRPD analysis on the material following moisture sorption was performed to determine the solid form.
# Dynamic vapor sorption (DVS) analysis was performed on polymorph Forms A, B, C, D, and E using the DVS instrument and parameters as described above. […] Hysteresis indicative of hemi-hydrate formation was observed.
# [2] = Salt screen: solubility in water; assay type: physicochemical
# Source text: Salts of a compound of Formula (I) were formed with L-tartaric acid, p-toluenesulfonic acid, D-glucaronic acid, ethane-1,2-disulfonic acid (EDSA), 2-naphthalenesulfonic acid (NSA), hydrochloric acid (HCl) (mono and bis), hydrobromic acid (HBr), citric acid, naphthalene-1,5-disulfonic acid (NDSA), DL-mandelic acid, fumaric acid, sulfuric acid, maleic acid, methanesulfonic acid (MSA), benzenesulfonic acid (BSA), ethanesulfonic acid (ESA), L-malic acid, phosphoric acid, and aminoethanesulfonic acid (taurine).
# [3] = Hold in humidity chambers at 9% RH and 95% RH; assay type: physicochemical; conditions: after 1 week
# [4] = Grinding stability (mortar and pestle); assay type: physicochemical; conditions: for Form by XRPD after grinding: after both 2 and 5 minutes of grinding by hand; for Grinding (mortar & pestle): by hand, 2 and 5 min, XRPD
# Protocol: Forms A, C, D, and E were subjected to grinding experiments performed using a mortar and pestle by hand. Samples were lightly grounded for 2 minutes then analyzed by XRPD. Material was then returned to the mortar and pestle and grounded for an additional 3 minutes, for a total of 5 minutes of grinding, and re-analyzed by XRPD.
# [5] = Solubility of polymorph Forms (H2O, SGF); assay type: physicochemical
# [6] = Stability studies of packaged polymorph Forms (temperature and humidity storage); assay type: physicochemical; conditions: HPLC, Karl Fischer, XRPD
# Source text: Polymorphs Form A and Form C were subjected to stability studies where several samples of each given Form were packaged and subjected to the given temperature and humidity conditions as described in Table 10. At each timepoint, a sample for that study was opened and evaluated by HPLC for purity, Karl Fischer for moisture content, and XRPD for confirming the polymorph Form.
# [7] = Drying of Form A at 70° C.; assay type: physicochemical; conditions: Drying at 70° C. for six days
# Protocol: 1. Procedure from CH2Cl2 and from IPA: Form C (1 g) was slurried in five volumes of dichloromethane. After holding for 15 hours, filtration, and drying, Form A was isolated in 82% yield. Scale-up was performed on a 20 g scale with a water-wet cake of Form C to yield Form A in 92% yield. […] Slurrying dry Form C in isopropyl alcohol using a similar method also yielded Form A.
# [8] = Thermal stability (60° C.); conditions: for Thermal stability (60° C.): after 1 week; for polymorph Form changes by XRPD: held at 60° C. for 10 days
# Protocol: Forms A, B, C, D, and E were held at 60° C. for 10 days followed by analysis by XRPD. In each case, 8 mL vials were charged with approximately 20 mg of material, with the exception of Form B for which 10 mg of material was charged. Samples equilibrated in an oven for 10 days.
# [9] = Stability of the capsules in a container closure; assay type: physicochemical
# Protocol: The stability of the capsules in a container closure was evaluated at long-term and accelerated conditions. Container closure conditions used were (i) 60-cc high density polyethylene (HDPE), wide mouth, round, white bottle; and (ii) child resistant 33-mm white plastic cap with a heat induction foil inner seal liner. The containers containing the capsules were subjected to the following conditions: (1) −20° C.±5° C.; (2) 5° C.±3° C.; (3) 25° C.±2° C., 60% RH±5% RH; (4) 40° C.±2° C., 75% RH±5% RH; (5) 25° C.±2° C., 60% RH±5% RH, open bottle; (6) 40° C.±2° C., 75% RH±5% RH, open bottle; and (7) 30° C.±2° C., 65% RH±5% RH. Samples of the capsule formulations were analyzed at certain time intervals. The API remained stable at 25° C.±2° C., 60% RH±5% RH and 40° C. 2° C., […]±5% RH for at least 6 months. The API remained stable for at least 6 month at −20° C. 5° C., 5° C. 3° C. when stored in induction-sealed HDPE bottles. The API was stable for at least 6 months at 25° C.±2° C., 60% RH±5% RH and 40° C.±2° C., 75% RH±5% RH in open HDPE bottles.
# [10] = Pharmacokinetics, single oral dose; assay type: in vivo; conditions: both sexes, human, plasma, healthy adult subjects, fasting, range over doses
# Protocol: A randomized, double-blind, placebo-controlled, single and repeat dose study was conducted to evaluate the pharmacokinetics (PK) of a compound of Formula (I) Form C polymorph when orally administered to healthy adult male and female subjects. Subjects received a single oral dose of a compound of Formula (I) Form C polymorph under fasting conditions at a dose of 1 mg, 2 mg, 5 mg, 10 mg, 20 mg, and 30 mg. Blood samples were collected for plasma analysis pre-dose, and at 0.5, 1, 1.5, 2, 3, 4, 6, 9, 12, 16, and 24 hours.
# [11] = Pharmacokinetics, repeat oral dose; assay type: in vivo; conditions: both sexes, human, plasma; Day 14; repeat oral dosing 1, 2, 5, 10 mg (QD Days 1 and 14, BID Days 2 through 13); range over doses
# Protocol: Repeat oral dose administration of a compound of Formula (I) Form C polymorph was administered once per day (QD) in the morning on Days 1 and 14 and twice daily (BID) on Days 2 through 13. Administration of the compound occurred after an overnight fast on Days 1 and 14. Blood samples were collected for plasma analysis on Day 14 following 1, 2, 5 and 10 mg repeat dosing. Blood samples were collected on Day 14 prior to dosing and at 0.5, 1, 1.5, 2, 3, 4, 6, 9, 12, 16 and 24 hours after administration to determine plasma concentrations of the compound of Formula (I) Form C polymorph. Doses of 1 mg, 2 mg, 5 mg, and 10 mg gave a Cmax value range of greater than 10 ng/mL to less than 1,000 ng/mL in a dose dependent manner. In addition doses of 1 mg, 2 mg, 5 mg, and 10 mg gave an AUCtau,ss value range of greater than 100 ng*h/mL to less than 2,500 ng*h/mL, in a dose dependent manner. For the BID regimens, the AUC over a 24 hour interval was obtained by multiplying AUCtau,ss by 2.
# [12] = PBS at pH 7.4, 37° C., 24 hours, 5 μM; cited from earlier work
# [13] = human plasma, 37° C., 5 μM; cited from earlier work
smiles,measurement,setting,value
C[C@H](Nc1ncnc2[nH]cnc12)c1cc2cccc(Cl)c2c(=O)n1-c1ccccc1 [Bis HCL],Moisture Sorption (wt % water),[1]; 60% RH,60% RH: 9.9 wt % water
same,Moisture Sorption (wt % water),[1]; 90% RH,90% RH: 12.3 wt % water
same,Solubility in water,[2],11800 µg/mL
C[C@H](Nc1ncnc2[nH]cnc12)c1cc2cccc(Cl)c2c(=O)n1-c1ccccc1 [EDSA],Moisture Sorption (wt % water),[1]; 60% RH,60% RH: 7.5 wt % water
same,Moisture Sorption (wt % water),[1]; 90% RH,90% RH: 28.1 wt % water
same,Solubility in water,[2],9400 µg/mL
"C[C@H](Nc1ncnc2[nH]cnc12)c1cc2cccc(Cl)c2c(=O)n1-c1ccccc1 [Form A, (S)-3-(1-(9H-purin-6-ylamino)ethyl)-8-chloro-2-phenylisoquinolin-1(2H)-one]",Moisture Sorption (wt % water),"[1]; 60% RH, listed as Free Form A",60% RH: 0.7 wt % water
same,Moisture Sorption (wt % water),"[1]; 90% RH, listed as Free Form A",90% RH: 2.6 wt % water
same,DVS,[1]; @ 60% RH,0.7% @ 60% RH
same,DVS,[1]; @ 90% RH,2.6% @ 90% RH
same,hygroscopicity,[1],slightly hygroscopic
same,moisture uptake at 60% RH,[1]; 60% RH,0.7 wt %
same,moisture uptake at 90% RH,[1]; 90% RH,2.6 wt %
same,changes in Form,[3],no changes in Form
same,Form by XRPD after grinding,[4],remain consistent
same,Grinding (mortar & pestle),[4],remained Form
same,Solubility (mg/mL),[5]; H2O,0.030 (H2O) mg/mL
same,Solubility (mg/mL),[5]; SGF,21.800 (SGF) mg/mL
same,Solubility in water,[2]; listed as Free Form A,30 µg/mL
same,instability of the polymorphic Form,"[6]; Double LDPE bags in fiberboard drum, 40° C. ± 2° C./75% RH ± 5% RH, 1, 2, 3, 6, and 12 months",no indication of instability of the polymorphic Form
same,degradation in chemical or chiral purity,[7],no degradation in chemical or chiral purity
same,Thermal stability (60° C.),[8],stable after 1
same,polymorph Form changes by XRPD,[8],No polymorph Form changes were observed
"C[C@H](Nc1ncnc2[nH]cnc12)c1cc2cccc(Cl)c2c(=O)n1-c1ccccc1 [Form B, (S)-3-(1-(9H-purin-6-ylamino)ethyl)-8-chloro-2-phenylisoquinolin-1(2H)-one]",DVS,[1]; @ 60% RH,1.0% @ 60% RH
same,DVS,[1]; @ 90% RH,1.7% @ 90% RH
same,hygroscopicity,[1],slightly hygroscopic
same,moisture uptake at 60% RH,[1]; 60% RH,1.0 wt %
same,moisture uptake at 90% RH,[1]; 90% RH,1.7 wt %
same,Thermal stability (60° C.),[8],stable after 1
same,polymorph Form changes by XRPD,[8],No polymorph Form changes were observed
"C[C@H](Nc1ncnc2[nH]cnc12)c1cc2cccc(Cl)c2c(=O)n1-c1ccccc1 [Form C, (S)-3-(1-(9H-purin-6-ylamino)ethyl)-8-chloro-2-phenylisoquinolin-1(2H)-one]",DVS,[1]; @ 60% RH,4.2% @ 60% RH
same,DVS,[1]; @ 90% RH,4.9% @ 90% RH
same,hygroscopicity,[1],moderately hygroscopic
same,moisture uptake at 60% RH,[1]; 60% RH,4.2%
same,moisture uptake at 90% RH,[1]; 90% RH,4.9%
same,changes in Form,[3],no changes in Form
same,Form by XRPD after grinding,[4],remain consistent
same,Grinding (mortar & pestle),[4],remained Form
same,Solubility (mg/mL),[5]; H2O,0.001 (H2O) mg/mL
same,Solubility (mg/mL),[5]; SGF,9.133 (SGF) mg/mL
same,instability of the polymorphic Form,"[6]; LDPE bags, foil or Mylar bag, HDPE drum, 5° C./60% RH, 25° C./60% RH, 40° C./75% RH, up to 9 months",no indication of instability of the polymorphic Form
same,time the API remained stable,"[9]; capsules in HDPE bottle, 25° C.±2° C., 60% RH±5% RH and 40° C. 2° C., 45% RH±5% RH",at least 6 months
same,time the API was stable,"[9]; capsules, 25° C.±2° C., 60% RH±5% RH and 40° C.±2° C., 75% RH±5% RH, open HDPE bottles",at least 6 months
same,time the API remained stable,"[9]; capsules, −20° C. 5° C., 5° C. 3° C., induction-sealed HDPE bottles",at least 6 month
same,Cmax,"[10]; single oral dose 1, 2, 5, 10, 20, 30 mg",10 to 1500 ng/mL
same,half-life,[10]; single oral dose 1 to 30 mg,3 to 10 h
same,AUC(0-t),"[10]; single oral dose 1 to 30 mg, read-out: AUC0-24",100 to 4000 ng·h/mL
same,AUC,[11],100 to 2500 ng·h/mL
same,Cmax at 14 days,[11],10 to 1000 ng/mL
same,Thermal stability (60° C.),[8],stable after 1
same,polymorph Form changes by XRPD,[8],No polymorph Form changes were observed
"C[C@H](Nc1ncnc2[nH]cnc12)c1cc2cccc(Cl)c2c(=O)n1-c1ccccc1 [Form D, (S)-3-(1-(9H-purin-6-ylamino)ethyl)-8-chloro-2-phenylisoquinolin-1(2H)-one]",DVS,[1]; @ 60% RH,0.4% @ 60% RH
same,DVS,[1]; @ 90% RH,1.7% @ 90% RH
same,hygroscopicity,[1],slightly hygroscopic
same,moisture uptake at 60% RH,[1]; 60% RH,0.4 wt %
same,moisture uptake at 90% RH,[1]; 90% RH,1.7 wt %
same,Grinding (mortar & pestle),[4],amorphous
same,Thermal stability (60° C.),[8],stable after 1
same,polymorph Form changes by XRPD,[8],No polymorph Form changes were observed
C[C@H](Nc1ncnc2[nH]cnc12)c1cc2cccc(Cl)c2c(=O)n1-c1ccccc1 [NDSA],Solubility in water,[2],300 µg/mL
C[C@H](Nc1ncnc2[nH]cnc12)c1cc2cccc(Cl)c2c(=O)n1-c1ccccc1 [NSA],Moisture Sorption (wt % water),[1]; 60% RH,60% RH: 0.3 wt % water
same,Moisture Sorption (wt % water),[1]; 90% RH,90% RH: 0.7 wt % water
same,Solubility in water,[2],50 µg/mL
O=C(O)CCCc1ccc(N(CCCl)CCCl)cc1 [chlorambucil],chemical stability,[12],largely hydrolyzed
CC(C)[N+](C)(CCOC(=O)C1c2ccccc2Oc2ccccc21)C(C)C [propantheline],plasma stability,[13],intermediate plasma stability
CCCOc1cc(N)ccc1C(=O)OCCN(CC)CC [propoxycaine],plasma stability,[13],low plasma stability

# Reference: patent US11312718B2, “Formulations of (S)-3-(1-(9H-purin-6-ylamino)ethyl)-8-chloro-2-phenylisoquinolin-1(2H)-one” (Infinity Pharmaceuticals, Inc., priority 2011, dated 2022)
